# Measured values reported in patent US6677310B1, “Ring-expanded nucleosides and nucleotides” (Nabi, priority 1999, dated 2004).
# Read-outs that look alike come from different tables or passages of the source.
# Tests used:
# Hepatitis B virus (HBV) = assay: Anti-HBV assay in 2.2.15 cells (virion DNA, HBV RI); type: cell-based; conditions: 9 days; for EC90: 10 fold inhibition
# Protocol: The anti-HBV assays were performed according to the published protocol of Korba and Milman, (Korba, B. E.; Milman, G. Antiviral Res., 15, 217 1991), using cultures of 2.2.15 cells. In brief, the assay consisted of (a) seeding the chronically HBV-producing human liver cells (Acs et al. Proc. Nat. Acad. Sci., 84, 464 1987) into 24-well tissue culture plates, and growing to confluence, (b) adding test compounds daily for a continuous 9-day period, harvesting culture media after day 9 and (c) lysing treated cells 24 hours following day 9 of treatment for the analysis of extracellular virion DNA and intracellular HBV genomic forms.
# Anti-HBV activity and the toxicity against confluent 2.2.15 cells were determined by the previously described procedure (Korba, B. E., et al. Antivir. Res., 19:55-70, 1992; Korba, B. E., et al. Antivir. Res., 15:217-228, 1991). Briefly, confluent cultures of HBV transfected 2.2.15 cells were maintained on either 96-well or 24-well flat-bottomed tissue culture plates in RPMI 1640 medium with 2% fetal bovine serum (FBS). The cells were treated with test compounds daily for nine consecutive days. The culture media were harvested on day 9 to quantify the amount of virion DNA. On day 10, the cells were lysed to quantify the amount of intracellular HBV replicative intermediates (RI). The quantification of virion DNA and the HBV RI were done by blot hybridization methods (Korba, B. E., et al. Antivir. Res., 19:55-70, 1992; Korba, B. E., et al. Antivir. Res., 15:217-228, 1991). Cellular toxicity against separate cultures of confluent 2.2.15 cells was measured after treatment with the compounds for nine days under identical culture conditions as those used for the antiviral assay (Korba, B. E., et al. Antivir. Res., 19:55-70, 1992). Uptake of neutral red dye by treated cells was compared with dye uptake by untreated control cells (Korba, B. E., et al. Antivir. Res., 19:55-70, 1992).
# [1] = biological target: T1, bacteriophage T7 RNA polymerase (Escherichia phage T7, UniProt P00573); assay: Transcription catalyzed by T7 RNA polymerase; type: biochemical
# T1 construct: purchased Promega P2075
# Protocol: To show whether the “fat” nucleotide Compound 15-2 (FNTP) is incorporated into RNA during transcription, experiments were performed using bacteriophage T7 RNA polymerase (RNAP) and a synthetic 42-mer DNA template shown below that is annealed to a 17-nucleotide promoter specific for T7 RNAP. This promoter-template enables the synthesis of 25-mer RNA, and the purine analogue may be incorporated in positions +1, +11, +13, +15, +21, +22, and +23.
# Transcription reaction conditions were optimized with the use of ^32P CTP for labeling RNA transcripts. Polyacrylimide gel electrophoresis of the transcription products obtained from the 42-mer template, using 1 mM each of four natural NTPs, reveled a 25-mer RNA as the major product, together with shorter and longer labeled transcripts (FIG. 9, lane 1). The additional bands observed are consistent with the known ability of T7 RNA polymerase to add non-coded residues at the 3′-end of transcripts. (Milligan, J. F., et al., Nuc. Acids Res., 15, 8783-8798, 1987) With the use of 1 mM nucleotide Compound 15-2 (FNTP), the yield of transcription was reduced (lane 2).
# With the use of a synthetic 37-mer DNA template, annealed to a 17-nucleotide promoter for T7 RNAP as shown below, a 20 nucleotide-long transcript RNA was obtained when the reaction mixture contained all four NTPs in appropriate concentrations, along with many shorter “abortive” fragments. (Milligan, J. F., et al., Nuc. Acids Res., 15, 8783-8798, 1987). For the reaction with modified nucleotide, typically
# the concentration of the appropriate natural nucleotide was reduced. […] (Milligan, J. F., et al., Methods in Enzymol., 180, 51-63, 1989.) In the present experiments, the synthesis of RNA was compared under standard conditions (using 4 NTPs in 0.2 mM concentration each) with the synthesis of RNA by using an additional “fat” nucleoside triphosphate Compound 15-2 (FNTP) in varying (0.05-10 mM) concentrations. The reaction mixtures were incubated at 37° C. for 2 hours, and the products were denatured in a buffer containing urea. The products were separated by 20% polyacrylamide-urea gel electrophoresis and visualized by autoradiography.
# Transcription samples (total volume 10 μL contained: 40 mM Tris-HCl pH 8.1 with 6 mM MgCl2, 5 mM dithiothreitol (DTT), 1 mM spermidine, 0.01% Triton-X 100, 50 μg/mL bovine serum albumin, 250 nM synthetic DNA template with a promotor for T7 RNAP, 4 units of T7 RNA polymerase, and 0.2 mM ribonucleoside triphosphates. A single α^32P-labeled NTP was added for labeling (typicallly 1 μL of 10 mCi/mL ). Inhibition assays were monitored with varying concentrations (0.05-10 mM) of nucleotide Compound 15-2. Polyacrylamide gel (20%) electrophoresis was performed on slab gels (18 cm×16 cm, or 35 cm×44 cm) containing 8M urea. […]
# rabbit liver guanase = biological target: T2, rabbit liver guanase (Oryctolagus cuniculus, UniProt G1T386); assay: Inhibition of guanase (Examples 10 and 11); type: biochemical; conditions: Lineweaver-Burk plot; for Ki: Tris buffer pH 7.6, 21° C., substrate guanine
# T2 construct: employing rabbit liver guanase; from tissue; host or cells: rabbit liver
# T2 sequence (G1T386 1-454): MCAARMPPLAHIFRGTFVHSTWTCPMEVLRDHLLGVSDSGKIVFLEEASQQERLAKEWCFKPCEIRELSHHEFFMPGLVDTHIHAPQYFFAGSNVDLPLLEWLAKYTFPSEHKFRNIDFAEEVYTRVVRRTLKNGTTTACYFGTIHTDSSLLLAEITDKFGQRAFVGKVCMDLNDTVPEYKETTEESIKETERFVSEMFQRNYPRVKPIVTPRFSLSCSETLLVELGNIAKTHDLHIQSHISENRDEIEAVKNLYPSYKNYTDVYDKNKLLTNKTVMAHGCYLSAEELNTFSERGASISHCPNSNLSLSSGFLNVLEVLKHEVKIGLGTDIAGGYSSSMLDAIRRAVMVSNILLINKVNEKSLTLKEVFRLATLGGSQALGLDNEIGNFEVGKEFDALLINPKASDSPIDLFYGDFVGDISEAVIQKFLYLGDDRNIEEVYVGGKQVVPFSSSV
# Description: The concentration of the inhibitor ranged from 4×10^−5 M to 8×10^−5 M (Example 7), and 4.4×10^−5 M to 8.9×10^−5 M (Example 8). The concentration of the enzyme used for each assay was 0.0082 units/mL.
# [2] = Neutral red uptake assay, stationary HFF cells; type: cell-based; conditions: human, read-out: Cytotoxicity (IC50), Neutral Red Uptake
# Protocol: (B) Neutral Red Uptake Assay: Twenty-four hours prior to assay, HFF cells were plated into 96-well plates at a concentration of 2.5×10^4 cells/well. After 24 h, the media was aspirated, and […] of media containing drug was added to the first row of wells and then diluted serially 1:5 using the automated Cetus Liquid Handling System. The plates were then incubated in a Co2 incubator at 37° C. for 7 days. At this time the media/drug was removed, cells were washed, 200 μL/well of 0.01% neutral red in PBS was added, and the mixture was incubated for 1 h. The dye was removed, and the cells were washed using a Nunc Plate Washer. After the wash was removed, […] of 50% ethanol/1% aqueous acetic acid was added. The plates were placed on a rotating shaker for 15 min, and the optical densities were then read at 540 nm using a plate reader.
# Data Analysis: Dose-response relationships were constructed by linearly regressing the percent inhibition of parameters derived in the preceding sections against log drug concentrations. Fifty-percent inhibitory (IC50) concentrations were calculated from the regression lines.
# [3] = Cell proliferation assay, rapidly growing HFF cells; type: cell-based; conditions: human, rapidly growing human foreskin fibroblast (HFF) cells; for IC50 at 72 h: rapidly growing HFF cells, read-out: Cytotoxicity (IC50), HFF Cells
# Protocol: The toxicity of Compounds 14-1 and 14-2 was also measured in rapidly growing human foreskin fibroblast (HFF) cells and Daudi cells by cell proliferation assay (National Institute of Allergy and Infectious Diseases (NIAID), NIH, Bethesda, Md.). According to the assay method, the appropriate cells were seeded in six-well plates in MEM containing 10% FBS. Twenty four hours later, the cells were treated with several dilutions of the test compounds covering a range of 0.03-100 μg/ml. The plates were incubated in a CO2 incubator at 37° C. for 72h. The cells were washed after removing the media and subsequently released from the plate wells by the addition of 1 ml of 0.25% trypsin. The contents in the wells were mixed, diluted with Isotone III and counted using a Coulter counter. The CC50 values (concentration of compound giving 50% inhibition of cell proliferation) were calculated by linear regression analysis. Toxicity of Compound 14-1 was also evaluated in bone marrow precursor cells by previously published procedure (Sommadossi, J.-P., et al., Biochem. Pharmacol., 44:1921-1925, 1992).
# (A) Cell Proliferation Assay: Twenty-four hours prior to assay, cells (HFF or Daudi) were seeded in six-well plates at a concentration of 2.5×10^4 cells per well in MEM containing 10% FBS. On the day of the assay, drugs were diluted serially in MEM containing 10% FBS at increments of 1:5 covering a range from […]. For drugs that had to be solubilized in DMSO, control wells receive MEM containing 10% DMSO. The media from the wells was then aspirated, and 2 mL of each drug concentration was added to each well. The cells were incubated in a CO2 incubator at 37° C. for 72 h. At the end of this time, the media-drug solution was removed, and the cells were washed. Trypsin-EDTA (0.25%, 1 mL) was added to each well and incubated until the cells started to come off the plate. The cell-media mixture was then pipeted up and down vigorously to break up the cell suspension and 0.2 mL of the mixture added to 9.8 mL of Isoton III and the cells were counted using a Coulter Counter. Each sample was counted three times with two replicate wells per sample. The IC50 values were calculated using a computer program.
# HCMV = assay: Cytopathic effect (CPE) inhibition assay, CMV in HFF cells; conditions: for EC50: Human betaherpesvirus 5, HFF, 336 h, read-out: Antiviral Activity (EC50), anti-HCMV; for SI (Selectivity Index), Neutral Red Uptake: IC50 (neutral red, stationary HFF) divided by anti-HCMV EC50; for SI (Selectivity Index), HFF Cells: IC50 (rapidly growing HFF) divided by anti-HCMV EC50
# Protocol: Cytopathic Effect (CPE) Inhibition Assay: Low passage HFF cells were seeded into 96-well tissue culture plates 24 h prior to use at a cell concentration of 2.5×10^5 cells/mL in 0.1 mL of MEM supplemented with 10% FBS. The cells were incubated for 24 h at 37° C. in a CO2 incubator. After incubation, the medium was removed, and 100 μL of MEM containing 2% FBS was added to all but the first row. In the first row, 125 μL of experimental drug was added in triplicate wells. Medium alone was added to both cell and virus control wells. The drug in the first row of wells was then diluted serially 1:5 throughout the remaining wells by transferring 25 μL using the Cetus Liquid Handling Machine. After a 1 h incubation, 100 μL of the appropriate virus concentration was added to each well, excluding cell control wells which received 100 μL of MEM. The virus concentration added was 2500 pfu per well. The plates were then incubated at 37° C. in a CO2 incubator for 14 days. An additional 50 μL of MEM was added on day 7. After the incubation period, media was aspirated, and the cells were stained with a 5% crystal violet/ethanol/formaldehyde solution for 4 h. The stain was then removed, and the plates were rinsed with tap water until all excess stain was removed. The plates were allowed to dry for 24 h and then read on a Bio-Tek Instruments Microplate reader at 630 nm.
# T1 sequence (P00573 whole entry): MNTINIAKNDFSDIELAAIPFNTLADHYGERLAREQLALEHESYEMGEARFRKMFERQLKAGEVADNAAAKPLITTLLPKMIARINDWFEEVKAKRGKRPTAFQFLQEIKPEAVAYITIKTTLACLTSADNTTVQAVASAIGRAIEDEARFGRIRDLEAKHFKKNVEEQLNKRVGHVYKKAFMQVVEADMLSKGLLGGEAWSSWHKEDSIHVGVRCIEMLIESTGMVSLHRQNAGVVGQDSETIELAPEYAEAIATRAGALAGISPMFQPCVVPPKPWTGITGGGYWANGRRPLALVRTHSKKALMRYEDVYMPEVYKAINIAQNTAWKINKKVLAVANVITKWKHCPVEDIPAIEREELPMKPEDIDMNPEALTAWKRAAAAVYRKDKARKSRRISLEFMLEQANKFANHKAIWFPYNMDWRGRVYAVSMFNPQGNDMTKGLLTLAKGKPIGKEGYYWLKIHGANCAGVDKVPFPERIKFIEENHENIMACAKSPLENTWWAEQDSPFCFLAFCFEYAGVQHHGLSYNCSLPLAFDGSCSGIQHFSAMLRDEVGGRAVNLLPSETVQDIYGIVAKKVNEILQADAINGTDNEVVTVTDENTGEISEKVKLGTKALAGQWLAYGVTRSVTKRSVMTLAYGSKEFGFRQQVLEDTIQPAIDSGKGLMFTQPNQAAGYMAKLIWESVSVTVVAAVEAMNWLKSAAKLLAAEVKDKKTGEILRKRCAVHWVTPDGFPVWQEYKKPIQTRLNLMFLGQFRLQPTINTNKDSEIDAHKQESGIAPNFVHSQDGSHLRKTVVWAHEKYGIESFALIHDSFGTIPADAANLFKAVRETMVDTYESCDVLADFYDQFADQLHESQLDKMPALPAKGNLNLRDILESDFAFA
structure (smiles),measurement,setting,value
"Nc1ccn([C@H]2CS[C@@H](CO)O2)c(=O)n1 [Compound 3TC, 2′,3′-dideoxy-L-3′-thiacytidine, reference compound]",EC90,"Hepatitis B virus (HBV); extracellular HBV virion DNA, read-out: EC90 Virion",198 ± 20 nM
same,EC50,"Hepatitis B virus (HBV); extracellular HBV virion DNA, read-out: EC50 Virion",65 ± 10 nM
same,EC90,"Hepatitis B virus (HBV); intracellular HBV DNA replicative intermediates, read-out: EC90 HBV RI",922 ± 85 nM
same,EC50,"Hepatitis B virus (HBV); intracellular HBV DNA replicative intermediates, read-out: EC50 HBV RI",172 ± 19 nM
"N=c1nc(N)nc(N)c2ncn([C@@H]3O[C@H](COP(=O)(O)OP(=O)(O)OP(=O)(O)O)[C@@H](O)[C@H]3O)c12 [Compound 15-2, 5′-triphosphate derivative of 4,6-diamino-8-imino-8H-1-β-D-ribofuranosylimidazo[4,5-e][1,3]diazepine]",incorporation into RNA during transcription (substrate for T7 polymerase),[1]; 42-mer DNA template,not a substrate for T7 polymerase
same,inhibition of T7 RNA polymerase-catalyzed transcription,"[1]; 42-mer and 37-mer DNA templates, 0.05-10 mM",inhibitor of T7 polymerase
"N=c1nc(N)c2ncn(Cc3ccccc3)c2c(N)n1 [Example 3, 4,8-Diamino-1-benzyl-6-iminoimidazo[4,5-e][1,3]diazepine]",melting point,,202 to 204 °C
"COC(=O)C1(OC)NC(=O)c2[nH]cnc2NC1=O (stereo not drawn) [Example 8, 6-Methoxy-6-methoxycarbonyl-4,5,7,8-tetrahydro-6H-imidazo[4,5-e][1,4]-diazepine-5,8-dione]",mode of inhibition of guanase,rabbit liver guanase,competitive inhibitors
same,Ki,rabbit liver guanase,540000 nM
"N=c1nc(N)c2nc[nH]c2c(N)n1 [Example 1, 4,8-Diamino-6-imino-1H-imidazo[4,5-e][1,3]diazepine]",melting point,,> 220 °C
"Nc1nc(O)c2ncn(COC(CO)CO)c2n1 [Ganciclovir, reference compound]",IC50 at 7 days,[2],> 100 µg/mL
same,CC50 at 72 h,[3]; Rapidly growing HFF cells,> 40 µg/mL
same,IC50 at 72 h,[3],40 µg/mL
same,EC50,HCMV,0.05 µg/mL
same,"SI (Selectivity Index), Neutral Red Uptake",HCMV,>2000
same,"SI (Selectivity Index), HFF Cells",HCMV,800
"COC(=O)C1(N)NC(=O)c2[nH]cnc2NC1=O (stereo not drawn) [Example 7, 6-Amino-6-methoxycarbonyl-4,5,7,8-tetrahydro-6H-imidazo[4,5-e]-[1,4]diazepine-5,8-dione]",mode of inhibition of guanase,rabbit liver guanase,competitive inhibitors
same,Ki,rabbit liver guanase,190000 nM
"O=C1c2nc(Br)n(Cc3ccccc3)c2N(Cc2ccccc2)C(=O)CN1Cc1ccccc1 [Compound 19, 3,4,7-Tribenzyl-2-bromo-4,5,7,8-tetrahydro-6H-imidazo [4,5-e][1,4]diazepine-5,8-dione]",IC50 at 7 days,[2],88.1 µg/mL
same,IC50 at 72 h,[3],56.5 µg/mL
same,melting point,,174 to 176 °C
same,EC50,HCMV,8.1 µg/mL
same,"SI (Selectivity Index), Neutral Red Uptake",HCMV,10.9
same,"SI (Selectivity Index), HFF Cells",HCMV,6.98
